According to US20170029388A1, “Treatment of Neurodegenerative Diseases with Asparagine Endopeptidase (AEP) Inhibitors and Compositions Related Thereto” (INTERCONTINENTAL GREAT BRANDS LLC, priority 2014, published 2017):

What was measured:
[1] = target: T1, AEP in human B lymphoblastoid Pala cells (Homo sapiens, UniProt Q99538); assay: IC50 assays in intact Pala cells; assay type: cell-based; settings: 2 hr incubation, residual AEP activity in lysate
T1 construct: human B lymphoblastoid pala cells, which are rich in endogenous AEP; endogenous in cells; host or cells: Pala cells (human B lymphoblastoid)
Method: The cells were incubated with inhibitors for 2 hrs then cells washed, harvested and lysed and the residual enzymatic activity was determined. Lysate was normalized by Bradford assay and the experiment was performed in triplicate and the mean results and SEM were plotted.
In an attempt to assess the activity of the compounds in intact cells, the compounds were incubated with human B lymphoblastoid pala cells, which are rich in endogenous AEP and have been used for inhibiting AEP in cellular assay.
Human B Lymphoblastoid Pala cells, which express high concentrations of AEP, were cultured in RPMI-1640, supplemented with 10% FBS, 2 mM L-Glutamine, 100 units/mL Penicillin, 100 μg/mL Streptomycin. Various concentrations of each compound were incubated with the Pala cells for 2 hr at 37° C. Cells were collected, washed twice with PBS and lysed in Lysis Buffer (20 mM Citric Acid, 60 mM Disodium Hydrogen Orthophosphate, 1 mM EDTA, 0.1% CHAPS, pH 5.8). The protein concentrations were normalized by Bradford assay and lysates were assayed with 5 μ,M Cbz-Ala-Ala-Asn-AMC. […] Data were analyzed with GraFit version 5.0.11 software package.

[2] = target: T2, AEP (Homo sapiens, UniProt Q99538); assay: Enzyme inhibition assays (steady-state kinetics, Z-AAN-AMC); assay type: biochemical; settings: for mode of inhibition: Michaelis-Menten plots; for inhibition constant KI: competitive inhibition fit
T2 construct: tested with purified active AEP, IC50 values for the top 8 candidates were found; purchased Sino Biological
T2 sequence (Q99538 18-323 limits assumed): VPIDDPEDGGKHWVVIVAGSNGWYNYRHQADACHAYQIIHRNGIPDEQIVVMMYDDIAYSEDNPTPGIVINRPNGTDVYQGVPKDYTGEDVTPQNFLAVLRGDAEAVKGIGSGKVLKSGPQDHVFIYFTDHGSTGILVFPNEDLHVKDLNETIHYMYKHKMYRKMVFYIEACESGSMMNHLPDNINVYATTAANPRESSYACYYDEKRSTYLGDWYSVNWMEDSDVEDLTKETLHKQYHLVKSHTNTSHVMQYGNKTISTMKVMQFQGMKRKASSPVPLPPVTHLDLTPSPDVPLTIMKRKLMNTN
Method: KI values for each inhibitor were determined by global fits to the competitive inhibition equation. C. Time course inactivation assays were used to generate progress curves, depicting product formation as a function of time. […] E. Time course inactivation assays were used to generate progress curves, depicting product formation as a function of time. Pseudo first-order rate constants were obtained at each concentration of compound BB1. F. Re-plot of the pseudo first-order rate constants, kobs, vs. the concentration of compound BB1.
To continue to assess the mechanism utilized by the compounds to inhibit AEP, the inhibition kinetics were determined for compound, 11, as well as compound BB1, in an attempt to confirm that the thiol moiety is competitively inhibiting the enzyme. […] The resulting Michaelis-Menten plots for each compound seem be indicative of competitive inhibition. […] Since BB1 contains a thiol group, it can form a disulfide bond with the active-site cysteine of AEP. […] Additionally, plotting the pseudo-first-order rate constants of inhibition, kobs, which were determined from the progress curves, yielded a hyperbolic curve, consistent with a two-step mechanism of inactivation (FIG. 6D). […] However, the kobs versus inhibitor concentration plot yielded a straight line, maybe due to the rapid disulfide formation reaction (FIG. 6F).
To determine the inhibition constants and the mechanism by which compounds BB1, 11 and 38 inhibit AEP, the steady-state kinetic parameters for the hydrolysis of the peptide substrate, Z-AAN-AMC, was determined in the absence or presence of increasing concentrations of inhibitor. In these assays, specified concentrations of the inhibitor were pre-incubated with substrate for 10 min at 37° C., then 50 nM AEP was added to initiate the reaction, which was quenched after 10 min. The RFU values of the reaction product were converted to micromolar values with an AMC standard curve and the final reaction rates were plotted against substrate concentration and globally fit to equations representative of competitive inhibition (eq 1), noncompetitive inhibition (eq 2), mixed inhibition (eq 3) and uncompetitive inhibition (eq 4) using a nonlinear least fit squares approach by GraFit version 5.0.11. […]
ν=Vmax[S]/([S]+Km(1+[1]/Kis)) (eq 1), ν=Vmax[S]/([S](1+[1]/Kl)+Km(1+[1]/Ki)) (eq 2), ν=Vmax[S]/([S](1+[1]/Kii)+Km([…])) (eq 3), ν=Vmax[S]/([S](1+[1]/Kii)+Km) (eq 4).
In the equations, Kii is the intercept Ki, and Kis is the slope Ki. The mode of the inhibition induced by the compounds on AEP was determined by the best fit of the data to equations 1 -4. Visual inspection of the fits, and a comparison of the standard errors, was used to confirm these assignments.

[3] = target: Cathepsin-L (Homo sapiens, UniProt P07711); assay: Cathepsin-L enzymatic assay (specificity); assay type: biochemical
Sequence of Cathepsin-L (P07711 114-333, species assumed): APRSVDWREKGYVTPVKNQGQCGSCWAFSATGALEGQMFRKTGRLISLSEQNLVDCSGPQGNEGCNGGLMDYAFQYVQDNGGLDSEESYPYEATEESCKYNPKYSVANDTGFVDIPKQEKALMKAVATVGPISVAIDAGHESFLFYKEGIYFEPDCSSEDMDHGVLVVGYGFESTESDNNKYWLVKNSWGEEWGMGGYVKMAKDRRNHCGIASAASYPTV
Method: Purified recombinant enzyme was incubated with various concentrations of inhibitor in appropriate assay buffers in the presence of increasing concentrations of inhibitor. The formation of fluorescent product was monitored in duplicate reactions and the data was fit to appropriate equations to calculate the IC50 values.
To identify small-molecule inhibitors of AEP, a high-throughput screen was designed in conjunction with the Emory Chemical Biology Discovery Center. The screen incorporated mouse kidney lysates to assay a 54,384 compound library. […] Additional structural analysis and grouping allowed the compounds to be sorted into 8 distinct backbone families. […] The specificity of the compounds was also determined using four major cysteine proteases (FIG. 2).
Cathepsin-L—100 nM enzyme was pre-incubated with inhibitor in assay buffer (100 mM Sodium Acetate pH 5.5, 1 mM EDTA) for 10 min at 37° C. The reaction was initiated upon addition of 25 μM substrate (D-Val-Leu-Lys-AMC (Bachem)).

[4] = system: C57BL/6J mice; assay: Acute and chronic toxicity in C57BL/6J mice; settings: 100 mg/kg

Row | IC50 in intact Pala cells [1] | selectivity for AEP over Cathepsin-L [3] | Structure (SMILES) | mode of inhibition [2] | inhibition constant KI [2] | systemic toxicity [4] | body weight ([4]; oral gavage, 30-day period) | complete blood count (CBC) parameters ([4]; oral gavage, 30-day period) | immunohistochemical staining, drug-treated vs vehicle-treated ([4]; oral gavage, 30-day period)
1 | slightly larger IC50 values | about 38 fold | Sc1nnc(Nc2ccccc2)s1 [Compound BB1] | competitive inhibitors | nanomolar-range | – | – | – | –
2 | – | – | Nc1ccc(N2CCOCC2)c2nonc12 [Compound 11] | competitive inhibitors | nanomolar-range | does not exhibit systemic toxicity | no significant change | within the normal range | no major differences
